Measured values taken from ChEMBL document CHEMBL5143612, “Antibacterial activity evaluation of vinyl sulfones against global predominant methicillin-resistant Staphylococcus aureus USA300” (Bioorg Med Chem Lett, 2022).
In brackets after ≈: the same amount, converted by molar mass. Activity calls are given as the source filed them. The rule behind the calls is not given here.

Experiments:
Format in all cases: functional
Pseudomonas aeruginosa [1] = assay: Bactericidal activity against Pseudomonas aeruginosa assessed as inhibition of bacterial growth incubated for 18 to 20 hrs by CLSI based microdilution susceptibility analysis; conditions: time 18-20 hrs
Staphylococcus aureus [2] = assay: Antibacterial activity against community-associated methicillin-resistant Staphylococcus aureus USA300 SF8300 assessed as inhibition of bacterial growth by measuring zone of inhibition at 30 ug incubated for 18 to 20 hrs by CLSI based disk diffusion analysis; conditions: time 18-20 hrs, read-out: DIZ
Staphylococcus aureus [3] = assay: Antibacterial activity against community-associated methicillin-resistant Staphylococcus aureus USA300 SF8300 assessed as inhibition of bacterial growth incubated for 18 to 20 hrs by CLSI based microdilution susceptibility analysis; conditions: time 18-20 hrs
Staphylococcus aureus [4] = assay: Inhibition of methicillin-susceptible Staphylococcus aureus ATCC 29213 bacterial cell adhesion to fibronectin at 0.1 mg/ml followed by compound addition on fibronectin precoated plate measured after 2 hrs by crystal violet dye based analysis
Pseudomonas aeruginosa [5] = assay: Antibacterial activity against Pseudomonas aeruginosa assessed as inhibition of bacterial growth by measuring zone of inhibition at 30 ug incubated for 18 to 20 hrs by CLSI based disk diffusion analysis; conditions: time 18-20 hrs, read-out: DIZ
Staphylococcus aureus [6] = assay: Antibacterial activity against methicillin-susceptible Staphylococcus aureus ATCC 29213 assessed as inhibition of bacterial growth incubated for 18 to 20 hrs by CLSI based microdilution susceptibility analysis; conditions: time 18-20 hrs
Pseudomonas aeruginosa [7] = assay: Antibacterial activity against Pseudomonas aeruginosa assessed as inhibition of bacterial growth incubated for 18 to 20 hrs by CLSI based microdilution susceptibility analysis; conditions: time 18-20 hrs
Staphylococcus aureus [8] = assay: Antibacterial activity against methicillin-susceptible Staphylococcus aureus ATCC 25923 assessed as inhibition of bacterial growth by measuring zone of inhibition at 30 ug incubated for 18 to 20 hrs by CLSI based disk diffusion analysis; conditions: time 18-20 hrs, read-out: DIZ
Staphylococcus aureus [9] = assay: Bactericidal activity against methicillin-susceptible Staphylococcus aureus ATCC 29213 assessed as inhibition of bacterial growth incubated for 18 to 20 hrs by CLSI based microdilution susceptibility analysis; conditions: time 18-20 hrs
Staphylococcus aureus [10] = assay: Bactericidal activity against community-associated methicillin-resistant Staphylococcus aureus USA300 SF8300 assessed as inhibition of bacterial growth incubated for 18 to 20 hrs by CLSI based microdilution susceptibility analysis; conditions: time 18-20 hrs

SMILES	MBC (Pseudomonas aeruginosa [1]) [µg/mL]	zone of inhibition at 30 µg/disc (Staphylococcus aureus [2]) [mm]	MIC (Staphylococcus aureus [3]) [µg/mL]	inhibition (Staphylococcus aureus [4])	zone of inhibition at 30 µg/disc (Pseudomonas aeruginosa [5]) [mm]	MIC (Staphylococcus aureus [6]) [µg/mL]	MIC (Pseudomonas aeruginosa [7]) [µg/mL]	zone of inhibition at 30 µg/disc (Staphylococcus aureus [8]) [mm]	MBC (Staphylococcus aureus [9]) [µg/mL]	MBC (Staphylococcus aureus [10]) [µg/mL]
N#C/C=C\S(=O)(=O)c1ccc(Br)cc1	> 120	23.4	60 (≈ 220 µM)	Active	13.8	30 (≈ 110 µM)	60 (≈ 220 µM)	22.6	30 (≈ 110 µM)	120 (≈ 441 µM)
O=S(=O)(/C=C/CCCBr)c1ccc(Br)cc1		6			6			6		
O=[N+]([O-])c1ccc(S(=O)(=O)/C=C/CCCBr)cc1		6			6			6		
N#C/C=C\S(=O)(=O)c1ccc(Cl)cc1	60 (≈ 264 µM)	6		Active	16.3	7.5 (≈ 32.9 µM)	60 (≈ 264 µM)	20	60 (≈ 264 µM)	
Cc1ccc(S(=O)(=O)/C=C/Cc2ccccc2)cc1		6			6			6		
N#C/C=C/S(=O)(=O)c1ccc(Cl)cc1	120 (≈ 527 µM)	25.5	7.5 (≈ 32.9 µM)	Active	13.9	1.88 (≈ 8.24 µM)	60 (≈ 264 µM)	22.8	15 (≈ 65.9 µM)	60 (≈ 264 µM)
CCCCOC(=O)/C=C/S(=O)(=O)c1ccc(C)cc1		15.1	60 (≈ 212 µM)		6	7.5 (≈ 26.6 µM)		13.9	120 (≈ 425 µM)	> 120
COC(=O)/C=C/S(=O)(=O)c1ccc(C)cc1	> 120	18.7	15 (≈ 62.4 µM)		10.6	7.5 (≈ 31.2 µM)	> 120	20.6	120 (≈ 499 µM)	120 (≈ 499 µM)
Cc1ccc(S(=O)(=O)/C=C/COCc2ccccc2)cc1		6			6	> 120		8.3	> 120	
Cc1ccc(/C=C/S(=O)(=O)c2ccc(C)cc2)cc1		6			6			6		
N#C/C=C\S(=O)(=O)c1ccccc1	120 (≈ 621 µM)	6		Active	14.1	15 (≈ 77.6 µM)	60 (≈ 311 µM)	22.3	30 (≈ 155 µM)	
N#C/C=C/S(=O)(=O)c1ccc(Br)cc1	> 120	25.7	15 (≈ 55.1 µM)	Active	12.9	7.5 (≈ 27.6 µM)	120 (≈ 441 µM)	24.7	15 (≈ 55.1 µM)	60 (≈ 220 µM)
C/C(=C\C#N)S(=O)(=O)c1ccc(C)cc1		6			6	60 (≈ 271 µM)		16.2	60 (≈ 271 µM)	
Cc1ccc(S(=O)(=O)/C=C/CCCBr)cc1		6			6			6		
